According to patent publication US8217155B2 (Gilead Colorado, Inc., priority 2007, dated 2012):
Where two headings read alike, the source gives them in different places.

Assays:
[1] = dog, human, 24 h
[2] = target: T1, human ETB receptors expressed in CHO cells (Homo sapiens, UniProt P24530); assay: In vitro ETB receptor binding, [125I]-labeled ET-3 displacement; conditions: incubation time 30 minutes, not steady-state; read-out: Ki ± SE, ETB
T1 construct: expressed in transfected cells; host or cells: CHO cells (membranes)
T1 sequence (P24530 27-442): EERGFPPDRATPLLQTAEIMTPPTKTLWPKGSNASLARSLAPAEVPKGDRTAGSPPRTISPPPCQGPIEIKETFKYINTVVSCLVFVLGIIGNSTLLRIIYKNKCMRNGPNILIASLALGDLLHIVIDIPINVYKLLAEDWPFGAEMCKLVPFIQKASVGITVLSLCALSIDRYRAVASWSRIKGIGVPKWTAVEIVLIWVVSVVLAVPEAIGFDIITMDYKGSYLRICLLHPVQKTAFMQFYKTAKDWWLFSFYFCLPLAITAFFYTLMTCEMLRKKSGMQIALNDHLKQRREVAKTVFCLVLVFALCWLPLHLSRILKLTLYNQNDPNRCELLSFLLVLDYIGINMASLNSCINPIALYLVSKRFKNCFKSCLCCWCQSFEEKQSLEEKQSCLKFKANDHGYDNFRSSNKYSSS
Method: (§1) The test compounds are dissolved at 10^−2M in methanol: Cremophor EL® 100:1 and diluted in deionized water to concentrations of […] to 10^−6 M. Binding reactions are initiated by addition of [^125I]-labeled ET-1 or [^125I]-labeled ET-3 for the ETA and ETB receptors, respectively, after 2 minutes preincubation of the membranes in the presence of Metabolite B or Metabolite C. The specific radioligand binding to each receptor is calculated as the difference between total binding and non-specific binding, determined in the presence of an excess of unlabeled ET-1. IC; values are determined by nonlinear curve fitting from experiments performed with 3 concentrations of test compound.

[3] = target: T2, human ETA receptors expressed in CHO cells (Homo sapiens, UniProt P25101); assay: In vitro ETA receptor binding, [125I]-labeled ET-1 displacement; conditions: incubation time 30 minutes; for affinity for the ETA receptor relative to that for the ETB receptor: CHO cells; for Ki: not steady-state, read-out: Ki ± SE, ETA
T2 construct: expressed in transfected cells; host or cells: CHO cells (membranes)
T2 sequence (P25101 21-427): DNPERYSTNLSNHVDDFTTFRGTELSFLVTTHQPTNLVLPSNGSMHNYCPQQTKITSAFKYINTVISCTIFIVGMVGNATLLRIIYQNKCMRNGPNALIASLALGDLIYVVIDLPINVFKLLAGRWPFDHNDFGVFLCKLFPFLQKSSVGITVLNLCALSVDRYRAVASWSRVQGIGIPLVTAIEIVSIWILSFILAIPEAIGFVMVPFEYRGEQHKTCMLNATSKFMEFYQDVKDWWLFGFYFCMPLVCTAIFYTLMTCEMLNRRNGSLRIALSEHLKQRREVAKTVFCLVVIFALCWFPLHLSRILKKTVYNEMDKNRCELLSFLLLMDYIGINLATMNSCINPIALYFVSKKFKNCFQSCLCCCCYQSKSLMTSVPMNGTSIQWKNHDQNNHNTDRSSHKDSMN
Method: as §1

[4] = dog, in vivo, po, 3 mg/kg
[5] = both, dog, in vivo, 10 mg/kg
[6] = cited from earlier work
[7] = In vitro metabolism in dog hepatocytes; conditions: 24-hour period
[8] = In vitro metabolism in rat hepatocytes; type: in vitro ADME; conditions: 24-hour period
[9] = In vitro metabolism in human hepatocytes; type: in vitro ADME; conditions: 24-hour period
[10] = Isolated perfused rat liver model; type: in vitro ADME, male Wistar rats; conditions: for cumulative excretion of total radioactivity in the bile: six hours; for decrease of total radioactivity in the perfusate: six hours post-dose
Method: The metabolic pathways of ambrisentan in male Wistar rats are investigated using the isolated perfused rat liver model. […] The livers are removed from 2 animals in each dose group and perfused in a recirculating system for 6 hours and the metabolite pattern of the perfusion medium and bile determined.

[11] = Biliary excretion in dogs; conditions: 10 mg/kg intraduodenal, eight hours post-administration
[12] = target: T3, ETA receptor (Homo sapiens, UniProt P25101); conditions: human ventricular tissue; cited from earlier work
T3 construct: Studies performed in human ventricular tissue with ambrisentan; from tissue; host or cells: human ventricular tissue
T3 sequence (P25101 21-427): T2 sequence (P25101 21-427)

[13] = In vivo excretion in rats; conditions: ADME studies
[14] = system: CYP isoenzymes; assay: Reaction phenotyping with microsomes expressing single CYP isoenzymes; type: in vitro ADME
Description: (§2) Reaction phenotyping using microsomes expressing single CYP isoenzymes or uridine diphosphate glucuronosyl transferase (UGT) isoenzymes are used to identity those enzymes that are sufficient to metabolize ambrisentan in vitro.

[15] = system: uridine diphosphate glucuronosyl transferase (UGT) isoenzymes; assay: Reaction phenotyping with microsomes expressing single UGT isoenzymes; type: in vitro ADME
Description: as §2

[16] = Biliary excretion and enterohepatic circulation in rats; type: in vivo, male rats
Method: Bile and urine are collected over a 24-hour period. […] To assess enterohepatic circulation, a second set of rats (acceptor rats) is intraduodenally dosed with pooled bile (0-12 hour period) from the first set of rats (donor rats), and bile and urine are again collected over a 24-hour period. […] The metabolite patterns in bile from donor and acceptor rats are similar.

[17] = In vitro metabolism in liver microsomes (phase I); type: in vitro ADME; conditions: rat, dog, and human liver microsomes
[18] = In vivo excretion in dogs; conditions: dog, after single 3 mg/kg oral dose of ambrisentan
[19] = donor rats, intraduodenal, within 24 hours

In the case of `COC(c1ccccc1)(c1ccccc1)[C@H](Oc1nc(C)cc(CO)n1)C(=O)O` [Metabolite B, (S)-2-(4-(Hydroxymethyl)-6-methylpyrimidin-2-yloxy)-3-methoxy-3,3-diphenylpropanoic acid], the “amount of hydroxylated metabolite detected” value [1] is reported as under 1%, the Ki [2] is reported as 4100 ± 322 nM and the “affinity for the ETA receptor relative to that for the ETB receptor” value [3] is reported as “about 100 times”. For the same compound, the Ki [3] was 40.3 ± 6.1 nM.

In the case of `COC(c1ccccc1)(c1ccccc1)[C@H](Oc1nc(C)cc(C)n1)C(=O)O[C@@H]1O[C@H](C(=O)O)[C@@H](O)[C@H](O)[C@H]1O` [Metabolite A, (2S,3S,4S,5R,6S)-6-((S)-2-(4,6-Dimethylpyrimidin-2-yloxy)-3-methoxy-3,3-diphenylpropanoyloxy)-3,4,5-trihydroxytetrahydro-2H-pyran-2-carboxylic acid], the “metabolite pattern in excreta” value [4] is reported as “main metabolite in feces” and the “share of the total radioactivity in bile” value [5] is reported as 77-81%.

For `Cc1cc(C)nc(OC(C(=O)O)C(O)(c2ccccc2)c2ccccc2)n1` (racemic) [Metabolite C], the Ki [2] was 556 ± 43.6 nM, the “affinity for the ETA receptor relative to that for the ETB receptor” value [3] was “about 100 times” and the Ki [3] was 22.2 ± 4.2 nM.

For `COC(c1ccccc1)(c1ccccc1)[C@H](Oc1nc(C)cc(C)n1)C(=O)O` [Ambrisentan, (S)-2-[(4,6-dimethylpyrimidin-2-yl)oxy]-3-methoxy-3,3-diphenylpropionic acid], the “mean 6MWD, mean increase from baseline” value ([6]; all patients, after 12 weeks of treatment) is given as 36 meters, the “primary efficacy endpoint (exercise capacity measured by 6MWD)” value ([6]; phase II trials, all four dose groups) is given as “statistically significant and clinically meaningful increase” and the “radiolabeled ambrisentan metabolized by phase II pathway” value [7] is given as 25%. The “metabolized by phase II pathway” value [8] was 15%, the “radiolabeled ambrisentan metabolized by phase II pathway” value [9] was 21% and the “cumulative excretion of total radioactivity in the bile” value (“cumulative excretion” for short) ([10]; 3 mg/kg dose) was 25%. The “decrease of total radioactivity in the perfusate” value (shortened to “decrease of total radioactivity”) ([10]; 3 mg/kg dose) was 55%, the “cumulative excretion” value ([10]; 10 mg/kg dose) was 30% and the “decrease of total radioactivity” value ([10]; 10 mg/kg dose) was 55%. For the same compound, the “cumulative excretion” value ([10]; 30 mg/kg dose) was 31%, the “decrease of total radioactivity” value ([10]; 30 mg/kg dose) was 45% and the “total radioactivity excreted into the bile” value ([11]; female dogs) was 47%. For the same compound, the “total radioactivity excreted into the bile” value ([11]; male dogs) was 54%, the Ki [3] was 0.63 ± 0.2 nM and the “affinity for the ETA receptor” value [12] was “high affinity (low Ki)”. The “share of parent compound among metabolic species in feces” value [13] was “ca. 80%”, the “CYP isoenzymes that oxidatively metabolize the compound” value [14] was “CYP3A4, CYP2C19, and CYP3A5” and the “UGT isoenzymes that glucuronidate the compound” value [15] was “UGT1A9S, UGT2B7S, and UGT1A3S”. For the same compound, the “total radioactivity recovered in the bile of acceptor rats” value ([16]; acceptor rats dosed intraduodenally with pooled donor bile, 24-hour period) was 76.5-94%, the “total radioactivity recovered from the bile” value [16, 19] was 94.8% and the “total radioactivity recovered from the urine” value [16, 19] was 1.5%. For the same compound, the “share of parent compound among metabolic species in bile” value ([16]; rats, biliary excretion study) was 95% and the “turnover of parent compound to hydroxylated metabolite (Metabolite B)” value [17] was 3-4%.

With `Cc1cc(C)nc(O)n1` [4,6-dimethyl-2hydroxypyrimidine, 4,6-dimethyl-2-hydroxypyrimidine] the “metabolite pattern in excreta” value [18] was “main metabolite in urine”.
